T1: Flag-epitope tag ZNF281 fusion protein (human, UniProt Q9Y2X9 1-895)
T1 construct: Expressed in transfected HEK293 cells and tested in cell lysate; also called FLAG-tagged ZNF281; Flag-tagged ZNF281
T1 sequence: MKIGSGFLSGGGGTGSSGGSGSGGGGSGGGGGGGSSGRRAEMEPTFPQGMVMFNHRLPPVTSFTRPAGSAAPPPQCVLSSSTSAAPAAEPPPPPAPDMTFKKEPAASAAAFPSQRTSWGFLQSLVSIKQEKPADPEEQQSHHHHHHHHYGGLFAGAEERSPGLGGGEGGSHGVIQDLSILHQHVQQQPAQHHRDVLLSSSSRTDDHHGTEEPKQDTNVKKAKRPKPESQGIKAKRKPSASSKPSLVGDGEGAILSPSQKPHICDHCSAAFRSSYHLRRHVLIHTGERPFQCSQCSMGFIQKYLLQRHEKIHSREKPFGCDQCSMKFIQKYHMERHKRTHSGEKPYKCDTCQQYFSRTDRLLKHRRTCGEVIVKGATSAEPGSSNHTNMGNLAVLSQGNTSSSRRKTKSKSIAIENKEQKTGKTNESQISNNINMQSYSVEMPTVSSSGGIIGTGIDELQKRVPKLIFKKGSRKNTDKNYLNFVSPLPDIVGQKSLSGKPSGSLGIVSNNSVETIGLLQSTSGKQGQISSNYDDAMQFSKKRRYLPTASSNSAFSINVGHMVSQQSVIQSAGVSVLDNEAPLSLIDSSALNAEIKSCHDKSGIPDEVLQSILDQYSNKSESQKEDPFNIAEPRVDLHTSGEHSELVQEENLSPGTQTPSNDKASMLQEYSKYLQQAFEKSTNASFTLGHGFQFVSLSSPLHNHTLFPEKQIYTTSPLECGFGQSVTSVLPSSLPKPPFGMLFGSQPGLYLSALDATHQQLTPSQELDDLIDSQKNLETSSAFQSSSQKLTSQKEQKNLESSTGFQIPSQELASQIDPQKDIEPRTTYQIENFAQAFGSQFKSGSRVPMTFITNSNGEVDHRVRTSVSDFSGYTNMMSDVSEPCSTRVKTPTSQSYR

B1: myc-epitope tag fusion HAND2 (other, not shown: small tags and cut ends)
chain: MSLVGGFPHHPVVHHEGYPFAAAAAAAAAAAASRCSHEENPYFHGWLIGHPEMSPPDYSMALSYSPEYASGAAGLDHSHYGGVPPGAGPPGLGGPRPVKRRGTANRKERRRTQSINSAFAELRECIPNVPADTKLSKIKTLRLATSYIAYLMDLLAKDDQNGEAEAFKAEIKKTDVKEEKRKKELNEILKSTVSSNDKKTKGRTGWPQHVWALELKQ
notes: Expressed in transfected HEK293 cells; The tag's position is unknown; also called Myc-tagged HAND2; Heart- and neural crest derivatives-expressed protein 2
B2: myc-epitope tag fusion TBX5 (other, not shown: small tags and cut ends)
chain: MADADEGFGLAHTPLEPDAKDLPCDSKPESALGAPSKSPSSPQAAFTQQGMEGIKVFLHERELWLKFHEVGTEMIITKAGRRMFPSYKVKVTGLNPKTKYILLMDIVPADDHRYKFADNKWSVTGKAEPAMPGRLYVHPDSPATGAHWMRQLVSFQKLKLTNNHLDPFGHIILNSMHKYQPRLHIVKADENNGFGSKNTAFCTHVFPETAFIAVTSYQNHKITQLKIENNPFAKGFRGSDDMELHRMSRMQSKEYPVVPRSTVRQKVASNHSPFSSESRALSTSSNLGSQYQCENGVSGPSQDLLPPPNPYPLPQEHSQIYHCTKRKEEECSTTDHPYKKPYMETSPSEEDSFYRSSYPQQQGLGASYRTESAQRQACMYASSAPPSEPVPSLEDISCNTWPSMPSYSSCTVTTVQPMDRLPYQHFSAHFTSGPLVPRLAGMANHGSPQLGEGMFQHQTSVAHQPVVRQCGPQTGLQSPGTLQPPEFLYSHGVPRTLSPHQYHSVHGVGMVPEWSDNS
notes: Expressed in transfected HEK293 cells; The tag's position is unknown; also called Myc-tagged TBX5; T-box transcription factor TBX5

Columns and labels:
fibroblasts = settings: added to reprogramming cocktail (GMT); cited from earlier work
5F-reprogrammed TTFs = assay: q-PCR of inflammatory and cardiac markers in 5F-reprogrammed TTFs treated with anti-inflammatory drugs; assay type: cell-based, mouse; settings: drug 10 μM added to 5F, 7 days
Procedure: (§1) Retroviruses production, cellular reprogramming and treatment. For retroviruses production, Platinum E cells were seeded into culture dishes (1×10^5 cells/cm2) one day before transfection in DMEM supplemented with 10% FBS and 1% penicillin/streptomycin. Cells reached ˜80% confluency on the day of transfection. DNA plasmids were transfected into Platinum E cells using FuGENE 6 transfection reagent. Twenty-four hours after transfection, wild type or αMHC-GFP tail-tip fibroblasts were seeded into culture dishes or plates that were precoated with SureCoat (Cellutron) for one hour at a density of 6×10^4/cm^2. Forty-eight hours after transfection, polybrene was added to viral medium that was filtered through a 0.45-μm filter at a concentration of […]. The mixture replaced the growth medium in the cell culture plate with tail-tip fibroblasts. The viral infection was serially repeated twice. Twenty-four hours after the second infection, the viral medium was replaced with induction medium, composed of DMEM/199 (4:1), 10% conditioned medium obtained from neonatal rat cardiomyocyte culture, 10% FBS, 5% horse serum, 1% penicillin/streptomycin, 1% nonessential amino acids, 1% essential amino acids, 1% B-27, 1% insulin-selenium-transferrin, 1% vitamin mixture, and 1% sodium pyruvate (Invitrogen). […]
Quantitative mRNA measurement. […]

[1] = tested on: 5F-reprogrammed adult αMHC-GFP transgenic TTFs; assay: Immunocytochemistry and flow cytometry of αMHC-GFP and cTnT in 5F-reprogrammed TTFs treated with anti-inflammatory drugs; assay type: cell-based, mouse; settings: drug added to 5F, 7 days
Procedure: as §1, with “twice.” for “twice. Twenty-four hours after the second infection, the viral medium was replaced with induction medium, composed of DMEM/199 (4:1), 10% conditioned medium obtained from neonatal rat cardiomyocyte culture, 10% FBS, 5% horse serum, 1% penicillin/streptomycin, 1% nonessential amino acids, 1% essential amino acids, 1% B-27, 1% insulin-selenium-transferrin, 1% vitamin mixture, and 1% sodium pyruvate (Invitrogen).”
Flow Cytometry. […] Cells were washed with Perm/Wash buffer, and then analyzed using FACS Caliber (BD Sciences) and FlowJo software. […]

[2] = tested on: adult tail-tip fibroblasts (TTFs) from αMHC-GFP mice; assay: Human retroviral ORF cDNA library screen for AGHMT-mediated cardiac reprogramming (high-throughput imaging of αMHC-GFP and cTnT); assay type: cell-based, mouse; settings: for cTnT Z-score / αMHC Z-score: individual cDNA expressed together with 5F (AGHMT), 9 days, Z-score ≥2 activator, ≤−2 inhibitor; for αMHC Z-score: αMHC-GFP; for 5F-mediated cardiac reprogramming (αMHC-GFP, cTnT immunocytochemistry): virus added to 5F (AGHMT), 9 days post-infection
Text: Isolation of mouse tail-tip fibroblast. For isolation of adult mouse tail-tip fibroblasts, tails were cut from 8-12 weeks old adult wild-type or αMHC-GFP mouse and were minced into […] with razor blades after peeling off the superficial dermis. The minced tails were placed in fibroblast growth medium (DMEM supplemented with 10% FBS and 1% (vol/vol) penicillin/streptomycin). Tail-tip fibroblasts migrated out from the explants within 1 week and were passaged one time before use.
Construction of human retroviral ORFs library. Gateway-compatible Human ORFs pEntry vectors were purchased from Thermo Fisher Scientific. Gateway-compatible retroviral destination vector, pMXs-gw, was a gift from Shinya Yamanaka (Addgene plasmid #18656) (Takahashi, 2006). The inventors transferred each ORF individually into pMXs-gw by performing site-specific LR recombination using Gateway LR Clonase II Enzyme Mix kit (Thermo Fisher Scientific).
Retroviruses production, cellular reprogramming and treatment. For retroviruses production, Platinum E cells were seeded into culture dishes (1×10^5 cells/cm2) one day before transfection in DMEM supplemented with 10% FBS and 1% penicillin/streptomycin. Cells reached ˜80% confluency on the day of transfection. DNA plasmids were transfected into Platinum E cells using FuGENE 6 transfection reagent. Twenty-four hours after transfection, wild type or αMHC-GFP tail-tip fibroblasts were seeded into culture dishes or plates that were precoated with SureCoat (Cellutron) for one hour at a density of 6×10^4/cm^2. Forty-eight hours after transfection, polybrene was added to viral medium that was filtered through a 0.45-μm filter at a concentration of […]. The mixture replaced the growth medium in the cell culture plate with tail-tip fibroblasts. The viral infection was serially repeated twice. Twenty-four hours after the second infection, the viral medium was replaced with induction medium, composed of DMEM/199 (4:1), 10% conditioned medium obtained from neonatal rat cardiomyocyte culture, 10% FBS, 5% horse serum, 1% penicillin/streptomycin, 1% nonessential amino acids, 1% essential amino acids, 1% B-27, 1% insulin-selenium-transferrin, 1% vitamin mixture, and 1% sodium pyruvate (Invitrogen). Small molecule treatments were used throughout the reprogramming process […] (Sigma).
Immunocytochemistry. For immunocytochemistry, cells were fixed in 4% paraformaldehyde for 15 min and permeabilized with 0.1% Triton-X in room temperature. Cells were washed with PBS for three times followed by blocking with 10% goat serum for 1 hr. Cells then were incubated with mouse monoclonal anti-cardiac Troponin T (cTnT) antibody (Thermo Scientific) at 1:500 dilutions and rabbit anti-GFP antibody (Thermo Scientific) at 1:500 dilutions in 5% Goat serum for 1 hr. After washing with PBS three times, Cells then were incubated with donkey anti-mouse alexa fluor 647 (Invitrogen) at 1:500 and goat anti-rabbit Alexa fluor 488 at 1:500 (Invitrogen).
Identification of activators and inhibitors of cardiac reprogramming in adult fibroblasts. The inventors' previously optimized cardiac reprogramming protocol with five factors (AGHMT, also called 5F) was able to reprogram ˜3% efficiency of adult TTFs to iCMs as measured by activation of a cardiac-specific αMHC-GFP transgene and cardiac troponin T (cTnT) immunostaining (Zhou et al., 2015). To identify additional regulators of cardiac reprogramming, the inventors created a retroviral expression library consisting of 1,052 open reading frame (ORF) cDNAs representing 786 human transcription factor, cytokine, epigenetic regulator and nuclear receptor genes (Table 51). The inventors screened this expression library for activators and inhibitors of cardiac reprogramming by expressing individual cDNAs together with 5F in isolated TTFs from αMHC-GFP mice, as schematized in FIG. 1A. […]

[3] = target: GATA4 (expression plasmid, luciferase reporter assay) (human) (UniProt P43694); assay: cell-based or functional assay
Chain of GATA4 (expression plasmid, luciferase reporter assay) (human) (P43694 whole entry, the tested form may be a part): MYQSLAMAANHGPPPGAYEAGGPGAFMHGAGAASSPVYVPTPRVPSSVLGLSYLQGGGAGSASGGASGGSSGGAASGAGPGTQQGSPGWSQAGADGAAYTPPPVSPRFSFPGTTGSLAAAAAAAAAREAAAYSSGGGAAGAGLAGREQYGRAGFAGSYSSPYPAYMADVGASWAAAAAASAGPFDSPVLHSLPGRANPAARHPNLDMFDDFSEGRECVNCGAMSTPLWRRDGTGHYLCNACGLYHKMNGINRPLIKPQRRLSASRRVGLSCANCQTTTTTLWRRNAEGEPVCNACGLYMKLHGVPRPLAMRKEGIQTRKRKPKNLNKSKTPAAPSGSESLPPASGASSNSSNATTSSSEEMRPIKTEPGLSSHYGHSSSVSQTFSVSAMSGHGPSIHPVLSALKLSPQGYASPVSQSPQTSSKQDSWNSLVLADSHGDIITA

[4] = target: T1, Flag-epitope tag ZNF281 fusion protein; assay: co-immunoprecipitation from transfected HEK293 cells (anti-FLAG IP, anti-Myc blot)
Procedure: FIGS. 6A-F. ZNF281 interacts with GATA4 to synergistically activate cardiac genes. (FIG. 6A) Co-immunoprecipitation assays were performed using HEK293 cells transfected with equal amounts of plasmid DNA encoding Myc-tagged GATA4, HAND2, MEF2c, or TBX5 and/or Flag-tagged ZNF281. IP, immunoprecipitation; IB, immunoblot. (FIG. 6B) Luciferase reporter assays were performed using HEK293 cells transfected with equal amounts of ZNF281 and/or GATA4 expression plasmids, as indicated, along with αMHC-luciferase reporter plasmid. (FIG. 6C) Heat maps showing ChIP-seq data for H3K27ac in adult mouse heart, and ZNF281 and GATA4 binding in reprogrammed TTFs at ±5 kB around the peak center. ChIP-seq experiments were performed using TTFs infected with 6F for 2 days. (FIG. 6D) ZNF281 binding motif enriched within ZNF281 binding peaks. (FIG. 6E) GATA4 binding motif enriched within GATA4 binding peaks. (FIG. 6F) Venn diagram showing the number of overlapping peaks between Heart H3K27ac, ZNF281 and GATA4. *P<0.05
Immunoprecipitation and Western Blot Analysis. Flag-epitope tag ZNF281 fusion protein were co-expressed with myc-epitope tag fusion GATA4, HAND2, MEF2C or TBX5 in HEK293 cells for 48 hours. […] The final elution and the input obtained before the immunoprecipitation was analyzed by SDS-PAGE western blot using a mouse monoclonal anti-Myc antibody (Novex) or mouse monoclonal anti-FLAG antibody (Sigma).

Row | Molecule | cTnT Z-score [2] | αMHC Z-score [2] | 5F-mediated cardiac reprogramming (αMHC-GFP, cTnT immunocytochemistry) [2] | further results
1 | C[C@H](NC(=O)Cc1cc(F)cc(F)c1)C(=O)N[C@H](C(=O)OC(C)(C)C)c1ccccc1 [DAPT] |  |  |  | cardiac reprogramming (fibroblasts): enhance cardiac reprogramming
2 | NC(=O)c1ccc(-c2nc(-c3ccc4c(c3)OCO4)c(-c3ccccn3)[nH]2)cc1 [SB431542] |  |  |  | cardiac reprogramming (fibroblasts): enhance cardiac reprogramming
3 | COc1ccc2cc(CCC(C)=O)ccc2c1 [nabumetone] |  |  |  | expression of inflammatory markers (IL6, Ccl2, and Ptgs1) (5F-reprogrammed TTFs): decreased; cardiac reprogramming efficiency [1]: greatly enhanced
4 | Achaete-scute homolog 1 [ASCL1] | 3.9 | 0.0 | greatly enhanced reprogramming | 
5 | BMP2 | 0.5 | −3.2 |  | 
6 | PHD finger protein 7 [PHF7] | 9.7 | 7.4 | enhanced reprogramming | 
7 | ZNF281 (expression plasmid, luciferase reporter assay) (from UniProt Q9Y2X9 1-895) |  |  |  | αMHC-Luciferase reporter activation [3]: 15 fold
8 | forkhead box protein A3 [FOXA3] | −3.1 | −4.3 | practically abolished | 
9 | B1 |  |  |  | binding result [4]: no binding
10 | B2 |  |  |  | binding result [4]: no binding

Reference: patent US20210180023A1, “CARDIAC REPAIR BY REPROGRAMMING OF ADULT CARDIAC FIBROBLASTS INTO CARDIOMYOCYTES” (The Board of Regents of the University of Texas System, priority 2017, published 2021)
